Results on 18 compounds are retold here after patent publication US9133167B2, “Antibacterial quinoline derivatives” (JANSSEN PHARMACEUTICA NV, priority 2012, dated 2015).

As usually defined, the melting point is the temperature, or range, at which the solid turns liquid.

In data set [1] the test system is Staphylococcus aureus (ATCC29213). Kind of data set: Microtitre plate assay, IC90 for bacterial growth, Staphylococcus aureus strain. In kind it is cell-based. Conditions: 90% inhibitory concentration for bacterial growth, 24 hours at 37° C.; for IC90: read-out: IC90 (μg/ml) STA B29213. The method, then: D.2. In-Vitro Method for Testing Compounds for Anti-Bacterial Activity Against a Non-Mycobacterial Strain
Preparation of Bacterial Suspensions for Susceptibility Testing:
The bacteria used in this study were grown overnight in flasks containing 100 ml Mueller-Hinton Broth (Becton Dickinson—cat. no. 275730) in sterile de-ionized water, with shaking, at 37° C. Stocks (0.5 ml/tube) were stored at −70° C. until use. Bacteria titrations were performed in microtiter plates to detect the TCID50, in which TCID50 represents the dilution that gives rise to bacterial growth in 50% of inoculated cultures. In general, an inoculum level of approximately 100 TCID50 was used for susceptibility testing.
Anti Bacterial Susceptibility Testing: IC90 Determination
Flat-bottom, sterile 96-well plastic microtiter plates were filled with 180 μl of sterile deionized water, supplemented with 0.25% BSA. Subsequently, stock solutions (7.8× final test concentration) of compounds were added in 45 μl volumes in column 2 Serial five-fold dilutions (45 μl in 180 μl) were made directly in the microtiter plates from column 2 to reach column 11. Untreated control samples with (column 1) and without (column 12) inoculum were included in each microtiter plate. Depending on the bacteria type, approximately 10 to 60 CFU per well of bacteria inoculum (100 TCID50), in a volume of 100 μl in 2.8× Mueller-Hinton broth medium, was added to the rows A to H, except column 12. The same volume of broth medium without inoculum was added to column 12 in row A to H. The cultures were incubated at 37° C. for 24 hours under a normal atmosphere (incubator with open air valve and continuous ventilation). At the end of incubation, one day after inoculation, the bacterial growth was quantitated fluorometrically. Therefore resazurin (0.6 mg/ml) was added in a volume of 20 μl to all wells 3 hours after inoculation, and the plates were re-incubated overnight. A change in colour from blue to pink indicated the growth of bacteria. The fluorescence was read in a computer-controlled fluorometer (Cytofluor Biosearch) at an excitation wavelength of 530 nm and an emission wavelength of 590 nm. The % growth inhibition achieved by the compounds was calculated according to standard methods. The IC90 (expressed in μg/ml) was defined as the 90% inhibitory concentration for bacterial growth. The results are shown in Table 7 for an assay using a Staphylococcus aureus strain.

Data set [2] relates to Mycobacterium smegmatis (ATCC607). Kind of data set: In-vitro anti-bacterial activity against strain M. smegmatis ATCC607 (Alamar Blue growth inhibition). The following applies: 90% inhibitory concentration for bacterial growth, 48 hours at 37° C.; for IC90: Mycolicibacterium smegmatis, read-out: IC90 (μg/ml) MSM 607. In kind it is cell-based. The protocol: D.1. In-Vitro Method for Testing Compounds for Anti-Bacterial Activity Against Strain M. Smegmatis ATCC607.
Flat-bottom, sterile 96-well plastic microtiter plates were filled with 180 μl of sterile deionized water, supplemented with 0.25% BSA. Subsequently, stock solutions (7.8× final test concentration) of compounds were added in 45 μl volumes to a series of duplicate wells in column 2 so as to allow evaluation of their effects on bacterial growth. Serial five-fold dilutions (45 μl in 180 μl) were made directly in the microtiter plates from column 2 to 11 using a customised robot system (Zymark Corp., Hopkinton, Mass.). Pipette tips were changed after every 3 dilutions to minimize pipetting errors with high hydrophobic compounds. Untreated control samples with (column 1) and without (column 12) inoculum were included in each microtiter plate. Approximately 250 CFU per well of bacteria inoculum, in a volume of 100 in 2.8× Mueller-Hinton broth medium, was added to the rows A to H, except column 12. The same volume of broth medium without inoculum was added to column 12 in row A to H. The cultures were incubated at 37° C. for 48 hours in a humidified 5% CO2 atmosphere (incubator with open air valve and continuous ventilation). At the end of incubation, two days after inoculation, the bacterial growth was quantitated fluorometrically. Therefore Alamar Blue (10×) was added to all wells in a volume of 20 and plates were incubated for another 2 hours at […]
The fluorescence was read in a computer-controlled fluorometer (Cytofluor, Biosearch) at an excitation wavelength of 530 nm and an emission wavelength of 590 nm (gain 30). The percentage growth inhibition achieved by the compounds was calculated according to standard methods and expressed as IC90 […] which defines the 90% inhibitory concentration for bacterial growth.
On the technique in general: Resazurin is reduced to fluorescent resorufin, in cell work by metabolically active cells.

Structures are written as SMILES. Converted amounts (≈) assume the structure as drawn. “And” between values parts separate entries of the source, which are not always exact repeats. Equal entries are not always repeated. Structures can show the parent of a compound that is named as a salt. Where only a bound is given, the exact number is not on record here.

Compound `COc1nc2ccc(CO)cc2cc1C(c1ccc(Cl)cc1)C1(O)CCN(Cc2ccccc2)CC1` (centres unmarked) [Compound 22] came in with a melting point of 196 °C. For the same compound, in data set [1], the IC90 was more than 16.3 µg/mL. Moreover, the IC90 in data set [2] stood at 16.3 µg/mL (≈ 32.4 µM).

`O=c1[nH]c2ccc(-c3cccnc3)cc2cc1C(c1ccc(Cl)cc1)C1(O)CCNCC1` (centres unmarked) [Compound 26]: the melting point was > 250 °C and 250 °C. In addition, the IC90 in data set [1] was more than 30.9 µg/mL. For the same compound, in data set [2], the IC90 was found to be 3.09 µg/mL (≈ 6.93 µM).

For `COc1nc2ccc(Br)cc2cc1C(c1ccc(Cl)cc1)C1(O)CCN(C)CC1` (centres unmarked) [Compound 16], the melting point is 193 °C. Besides, the IC90 in data set [1] was 5.99 µg/mL (≈ 12.6 µM). Besides, the IC90 in data set [2] was 2.39 µg/mL (≈ 5.02 µM).

Turning to `C=Cc1ccc2nc(OC)c(C(c3ccc(Cl)cc3)C3(O)CCN(Cc4ccccc4)CC3)cc2c1` (centres unmarked) [Compound 11], the melting point turned out to be 195 °C. Moreover, the IC90 in data set [1] is more than 39.8 µg/mL.

As to `O=c1[nH]c2ccc(Br)cc2cc1C(c1ccc2ccccc2c1)C1(O)CCN(Cc2ccccc2)CC1` (centres unmarked) [Compound 80], the melting point turned out to be 249 °C. Besides, in data set [1], the IC90 came out at 4.4 µg/mL (≈ 7.95 µM).

In the case of `COc1nc2ccc(C(=O)Nc3cccnc3)cc2cc1C(c1ccc(Cl)cc1)C1(O)CCN(Cc2ccccc2)CC1` (centres unmarked) [Compound 24], the melting point was determined as 146 °C. In addition, the IC90 in data set [1] is 8.38 µg/mL (≈ 14.1 µM). Moreover, the IC90 in data set [2] worked out at 7.47 µg/mL (≈ 12.6 µM).

Compound `COc1nc2ccc(Br)cc2cc1C(c1ccc(C#N)cc1)C1(O)CCN(Cc2ccccc2)CC1` (centres unmarked) [Compound 58] came in with a melting point of 220 °C. Moreover, in data set [1], the IC90 is 8.47 µg/mL (≈ 15.6 µM).

Take `COc1nc2ccc(Br)cc2cc1C(c1ccc(Cl)cc1)C1(O)CCN(Cc2cccc(F)c2)CC1` (centres unmarked) [Compound 17]: the melting point was 220 °C. Also, the IC90 in data set [1] turned out to be 14.3 µg/mL (≈ 25.1 µM). Besides, the IC90 in data set [2] amounted to 14.3 µg/mL (≈ 25.1 µM).

Consider `COc1nc2ccc(C#N)cc2cc1C(c1ccc(Cl)cc1)C1(O)CCN(Cc2ccccc2)CC1` (centres unmarked) [Compound 13], for which the melting point was 199 °C. Also, the IC90 in data set [1] was determined as 25.6 µg/mL (≈ 51.3 µM).

As for `CS(=O)(=O)c1ccc2[nH]c(=O)c(C(c3ccccc3)C3(O)CCNCC3)cc2c1` (centres unmarked) (as salt: HCl) [Compound 100], the melting point is more than 260 °C.

The compound `OC1(C(c2ccc(Cl)cc2)c2cc3cc(Br)ccc3nc2N2CCOCC2)CCN(CCc2ccccc2)CC1` (centres unmarked) [Compound 1] returned a melting point of 158 °C. The IC90 in data set [1] is 6.81 µg/mL (≈ 11 µM).

On to `O=c1[nH]c2ccc(Br)cc2cc1C(c1ccc(Cl)cc1)C1(O)CCN(Cc2ccccc2)CC1` (centres unmarked) [Compound 10], for which the melting point was 244 °C. In addition, in data set [1], the IC90 turned out to be 4.27 µg/mL (≈ 7.94 µM).

Turning to `COc1nc2ccc(Br)cc2cc1C(c1ccc(SC)cc1)C1(O)CCNCC1` (centres unmarked) [Compound 9], the melting point stood at 204 °C. In addition, the IC90 in data set [1] came to 7.58 µg/mL (≈ 16 µM). For the same compound, the IC90 in data set [2] is 4.78 µg/mL (≈ 10.1 µM).

`CCn1c(=O)c(C(c2ccc(Cl)cc2)C2(O)CCN(Cc3ccccc3)CC2)cc2cc(-c3cccnc3)ccc21` (centres unmarked) [Compound 3] returned a melting point of 172 °C. Moreover, in data set [1], the IC90 is 7.1 µg/mL (≈ 12.6 µM). Besides, the IC90 in data set [2] was 3.56 µg/mL (≈ 6.31 µM).

Regarding `CCn1c(=O)c(C(c2ccc(Cl)cc2)C2(O)CCN(Cc3ccccc3)CC2)cc2cc(Br)ccc21` (centres unmarked) [Compound 2], the melting point turned out to be 212 °C. Besides, the IC90 in data set [1] came to 11.3 µg/mL (≈ 19.9 µM). In data set [2], the IC90 is 3.57 µg/mL (≈ 6.31 µM).

For the compound `COc1nc2ccc(Br)cc2cc1C(c1ccc(Cl)cc1)C1(O)CCN(C(=N)N)CC1` (centres unmarked) [Compound 25], the melting point was more than 250 °C. For the same compound, in data set [1], the IC90 stood at 1.59 µg/mL (≈ 3.16 µM). The IC90 in data set [2] is 6.34 µg/mL (≈ 12.6 µM).

`COc1nc2ccccc2cc1C(c1ccccc1)C1(O)CCNCC1` (centres unmarked) [Compound 12] registered a melting point of 119 °C. Besides, in data set [1], the IC90 was more than 22 µg/mL.

As to `CCn1c(=O)c(C(c2ccc(Cl)cc2)C2(O)CCNCC2)cc2cc(Br)ccc21.O=C(O)/C=C/C(=O)O` (centres unmarked) [Compound 102], the “IC90 (μg/ml) STA B29213” value in data set [1] was found to be 14.58 µg/mL. Besides, the “IC90 (μg/ml) MSM 607” value in data set [2] came out at 11.58 µg/mL.
